Where two headings read alike, the source gives them in different places.
Columns and labels:
PI3Kβ = target: T1, PI3Kβ (Homo sapiens, UniProt P42338); experiment: Enzyme binding assay (KINOMEscan, DiscoveRx); details: PIK3Cβ_h, read-out: Kd PIK3Cβ_h
T1 construct: purchased DiscoveRx Corporation, San Diego (contract service, KINOMEscan)
How it was run: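 Using the KINOMEscan format, the enzyme binding affinity of each compound was determined. Each value is the inhibitor binding constant, Kd (nM).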

[1] = system: Akt phosphorylated at Thr308 in PC-3 cells; experiment: Cellular assay: phosphorylation of Akt at Thr308 in PC-3 cells (MSD ELISA); format: cell-based; details: read-out: IC50 pAkt_Thr308
How it was run: (§1)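 Phospho-Akt in whole-cell lysates is quantified by electrochemiluminescent immunoassay using phospho-site capture and total-Akt detection antibodies.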

PI3Kδ = target: T2, PI3Kδ (Homo sapiens, UniProt O00329); experiment: Enzyme binding assay (KINOMEscan, DiscoveRx); details: PIK3Cδ_h
T2 construct: purchased DiscoveRx Corporation, San Diego (contract service, KINOMEscan)
T2 sequence (O00329 1-1044): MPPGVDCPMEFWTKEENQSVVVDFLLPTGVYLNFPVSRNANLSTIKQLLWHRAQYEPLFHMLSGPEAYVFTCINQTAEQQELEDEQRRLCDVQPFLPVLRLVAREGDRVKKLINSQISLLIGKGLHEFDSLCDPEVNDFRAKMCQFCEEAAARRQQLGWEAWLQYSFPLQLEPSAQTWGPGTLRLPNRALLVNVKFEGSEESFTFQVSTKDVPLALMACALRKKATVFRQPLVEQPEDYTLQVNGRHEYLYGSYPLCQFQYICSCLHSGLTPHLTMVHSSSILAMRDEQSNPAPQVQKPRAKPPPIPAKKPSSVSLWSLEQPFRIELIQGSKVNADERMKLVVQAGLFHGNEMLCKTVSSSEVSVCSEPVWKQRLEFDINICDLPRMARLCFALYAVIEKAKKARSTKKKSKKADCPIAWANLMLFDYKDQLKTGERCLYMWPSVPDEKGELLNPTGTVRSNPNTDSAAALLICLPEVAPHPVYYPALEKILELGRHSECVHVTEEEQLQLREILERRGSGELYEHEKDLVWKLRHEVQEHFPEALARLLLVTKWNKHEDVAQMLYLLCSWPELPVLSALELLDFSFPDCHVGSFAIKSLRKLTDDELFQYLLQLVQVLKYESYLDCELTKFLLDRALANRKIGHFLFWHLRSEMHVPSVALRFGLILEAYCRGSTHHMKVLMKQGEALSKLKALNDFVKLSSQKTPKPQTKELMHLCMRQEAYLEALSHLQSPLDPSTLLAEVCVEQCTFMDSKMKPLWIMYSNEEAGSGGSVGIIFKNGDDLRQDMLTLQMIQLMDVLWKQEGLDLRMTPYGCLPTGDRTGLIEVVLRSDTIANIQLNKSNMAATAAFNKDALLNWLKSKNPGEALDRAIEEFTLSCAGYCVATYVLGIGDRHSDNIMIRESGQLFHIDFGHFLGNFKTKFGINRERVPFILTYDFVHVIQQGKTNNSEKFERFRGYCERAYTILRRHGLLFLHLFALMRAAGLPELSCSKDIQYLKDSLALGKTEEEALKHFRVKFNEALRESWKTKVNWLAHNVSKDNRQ
How it was run: (§2)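 Uses KINOMEscan technology to determine binding affinity toward the kinase enzymes.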

[2] = system: Akt phosphorylated at Ser473 in PC-3 cells; experiment: Cellular assay: phosphorylation of Akt at Ser473 in PC-3 cells (MSD ELISA); format: cell-based; details: read-out: IC50 pAkt_S473
How it was run: as §1

kinase enzymes [3] = target: T3, kinase enzymes (Homo sapiens, UniProt P42336); experiment: Enzyme binding assay (KINOMEscan, DiscoveRx), further kinases of Table A; details: PIK3Cα_h
T3 construct: purchased DiscoveRx Corporation, San Diego (contract service, KINOMEscan)
How it was run: as §2

kinase enzymes [4] = target: T4, kinase enzymes (Homo sapiens, UniProt P42345); experiment: as above; details: MTOR_h
T4 construct: purchased DiscoveRx Corporation, San Diego (contract service, KINOMEscan)
How it was run: as §2

kinase enzymes [5] = target: T5, kinase enzymes (Homo sapiens, UniProt P48736); experiment: as above; details: PIK3Cγ_h
T5 construct: purchased DiscoveRx Corporation, San Diego (contract service, KINOMEscan)
How it was run: as §2

[6] = Homo sapiens, PC-3, 1 h, PC-3 cells, 60 min compound incubation, MSD ELISA
[7] = PC-3 cells, 60 min compound incubation, MSD ELISA

T1 sequence (P42338 whole entry): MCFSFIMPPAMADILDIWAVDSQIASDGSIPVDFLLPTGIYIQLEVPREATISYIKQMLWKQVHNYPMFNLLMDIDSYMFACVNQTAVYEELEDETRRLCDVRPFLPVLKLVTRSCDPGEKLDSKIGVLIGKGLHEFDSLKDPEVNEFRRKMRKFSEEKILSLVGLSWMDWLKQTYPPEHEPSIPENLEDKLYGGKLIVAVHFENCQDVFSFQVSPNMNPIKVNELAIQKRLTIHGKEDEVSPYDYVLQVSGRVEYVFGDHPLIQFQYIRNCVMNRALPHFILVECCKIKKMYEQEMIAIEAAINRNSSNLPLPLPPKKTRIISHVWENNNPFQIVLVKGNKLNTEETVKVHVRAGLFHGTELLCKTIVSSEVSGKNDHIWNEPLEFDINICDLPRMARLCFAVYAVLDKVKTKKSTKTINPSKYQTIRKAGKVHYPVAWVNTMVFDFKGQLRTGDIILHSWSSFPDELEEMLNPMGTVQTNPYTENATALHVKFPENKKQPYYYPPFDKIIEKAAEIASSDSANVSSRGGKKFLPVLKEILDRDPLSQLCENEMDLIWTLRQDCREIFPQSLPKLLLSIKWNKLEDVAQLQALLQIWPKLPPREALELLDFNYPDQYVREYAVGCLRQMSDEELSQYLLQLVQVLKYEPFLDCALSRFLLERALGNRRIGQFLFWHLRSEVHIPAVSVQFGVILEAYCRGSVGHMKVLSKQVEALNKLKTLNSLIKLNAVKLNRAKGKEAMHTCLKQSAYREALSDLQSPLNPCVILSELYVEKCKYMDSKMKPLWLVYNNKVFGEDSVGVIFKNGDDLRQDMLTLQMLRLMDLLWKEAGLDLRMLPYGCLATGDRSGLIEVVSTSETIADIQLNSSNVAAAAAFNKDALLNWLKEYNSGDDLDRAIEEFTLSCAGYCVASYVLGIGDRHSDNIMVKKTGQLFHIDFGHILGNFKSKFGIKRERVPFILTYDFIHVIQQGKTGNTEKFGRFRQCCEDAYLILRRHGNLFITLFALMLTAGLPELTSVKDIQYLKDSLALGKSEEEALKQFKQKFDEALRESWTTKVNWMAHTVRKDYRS
T3 sequence (P42336 whole entry): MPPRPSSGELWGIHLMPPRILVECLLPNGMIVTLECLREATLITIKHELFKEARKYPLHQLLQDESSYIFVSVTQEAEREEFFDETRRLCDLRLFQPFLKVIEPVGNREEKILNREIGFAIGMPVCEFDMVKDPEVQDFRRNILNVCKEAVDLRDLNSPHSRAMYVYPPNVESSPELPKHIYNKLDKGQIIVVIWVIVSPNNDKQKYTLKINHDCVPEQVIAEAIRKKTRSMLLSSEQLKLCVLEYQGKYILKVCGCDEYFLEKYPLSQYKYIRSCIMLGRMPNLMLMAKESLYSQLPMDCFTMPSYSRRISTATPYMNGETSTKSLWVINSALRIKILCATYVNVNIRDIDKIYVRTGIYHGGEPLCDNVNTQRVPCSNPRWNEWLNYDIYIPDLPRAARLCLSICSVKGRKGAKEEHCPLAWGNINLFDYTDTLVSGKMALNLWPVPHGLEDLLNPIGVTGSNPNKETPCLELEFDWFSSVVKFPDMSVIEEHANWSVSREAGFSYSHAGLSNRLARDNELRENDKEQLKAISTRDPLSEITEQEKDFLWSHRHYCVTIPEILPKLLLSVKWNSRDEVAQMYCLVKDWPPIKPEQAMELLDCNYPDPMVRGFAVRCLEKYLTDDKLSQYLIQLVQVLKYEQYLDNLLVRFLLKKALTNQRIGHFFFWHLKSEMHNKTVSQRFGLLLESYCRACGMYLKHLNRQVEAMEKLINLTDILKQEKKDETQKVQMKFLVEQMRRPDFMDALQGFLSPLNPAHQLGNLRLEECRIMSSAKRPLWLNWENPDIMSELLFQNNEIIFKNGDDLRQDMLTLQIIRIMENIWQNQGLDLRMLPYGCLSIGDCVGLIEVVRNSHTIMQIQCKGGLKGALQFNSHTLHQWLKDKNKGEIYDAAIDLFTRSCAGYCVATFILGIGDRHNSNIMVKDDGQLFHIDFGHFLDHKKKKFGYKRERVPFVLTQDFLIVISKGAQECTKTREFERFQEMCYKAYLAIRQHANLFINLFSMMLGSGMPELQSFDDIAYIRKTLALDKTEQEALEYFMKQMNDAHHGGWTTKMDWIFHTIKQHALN
T5 sequence (P48736 whole entry): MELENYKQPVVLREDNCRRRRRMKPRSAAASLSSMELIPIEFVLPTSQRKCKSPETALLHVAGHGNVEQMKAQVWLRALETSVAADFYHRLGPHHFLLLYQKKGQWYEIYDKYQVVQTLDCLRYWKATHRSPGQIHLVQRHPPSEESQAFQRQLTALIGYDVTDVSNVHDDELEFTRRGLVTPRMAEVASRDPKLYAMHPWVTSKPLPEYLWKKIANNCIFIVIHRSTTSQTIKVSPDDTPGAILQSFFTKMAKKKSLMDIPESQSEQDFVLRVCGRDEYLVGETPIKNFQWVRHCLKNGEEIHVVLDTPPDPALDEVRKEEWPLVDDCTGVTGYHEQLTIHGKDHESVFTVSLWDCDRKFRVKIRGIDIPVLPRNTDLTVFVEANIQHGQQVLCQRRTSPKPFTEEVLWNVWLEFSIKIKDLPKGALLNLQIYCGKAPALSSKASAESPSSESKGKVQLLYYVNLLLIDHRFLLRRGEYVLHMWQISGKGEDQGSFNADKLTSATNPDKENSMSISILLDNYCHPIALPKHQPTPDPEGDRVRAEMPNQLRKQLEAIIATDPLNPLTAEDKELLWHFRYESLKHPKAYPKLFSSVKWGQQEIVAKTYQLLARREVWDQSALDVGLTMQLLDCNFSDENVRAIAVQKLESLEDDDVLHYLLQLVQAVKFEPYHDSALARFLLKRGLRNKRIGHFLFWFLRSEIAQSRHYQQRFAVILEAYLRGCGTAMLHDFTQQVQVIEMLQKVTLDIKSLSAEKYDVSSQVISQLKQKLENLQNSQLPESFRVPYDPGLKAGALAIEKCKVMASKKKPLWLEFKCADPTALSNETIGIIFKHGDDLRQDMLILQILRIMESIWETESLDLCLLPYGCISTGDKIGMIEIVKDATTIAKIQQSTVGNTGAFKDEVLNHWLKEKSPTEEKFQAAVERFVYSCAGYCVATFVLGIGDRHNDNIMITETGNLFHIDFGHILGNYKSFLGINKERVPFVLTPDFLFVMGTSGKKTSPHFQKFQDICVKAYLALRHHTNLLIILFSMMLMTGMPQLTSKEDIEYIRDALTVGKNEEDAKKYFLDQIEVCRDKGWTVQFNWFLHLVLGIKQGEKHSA

| Structure (SMILES) | Kd (PI3Kβ) [nM] | IC50 [1, 6] [nM] | melting point [°C] | Kd (PI3Kδ) [nM] | IC50 [2, 6] [nM] | Kd (kinase enzymes [3]) [nM] | Kd (kinase enzymes [4]) [nM] | Kd (kinase enzymes [5]) [nM] | IC50 [1, 7] [nM] | IC50 [2, 7] [nM] | IC50 ([1]; Homo sapiens, PC-3, 1 h) [nM] | IC50 ([2]; Homo sapiens, PC-3, 1 h) [nM] |
| --- | --- | --- | --- | --- | --- | --- | --- | --- | --- | --- | --- | --- |
| C[C@H](CO)NCc1cc(F)cc(N2CCCC2c2cc(C(=O)N(C)C)cc3ncc(N4CCOCC4)nc23)c1 (mixture of isomers) [Compound 48] | 28 | ~457 | 80 | 724 | > 513 | 2460 | > 30200 | 14800 |  |  |  |  |
| CC(Oc1cc(F)cc(F)c1)c1cc(C(=O)N2CCOCC2)cc2ncc(N3CCO[C@H](C)C3)nc12 (mixture of isomers) [Compound 56] | 13 | 148 | 55 | 2630 | > 513 | 6610 | > 30200 | > 30200 |  |  |  |  |
| O=C(c1cc(C2CCCN2c2cc(F)cc(F)c2)c2nc(N3CCOCC3)cnc2c1)N1CCC[C@H]1CO (mixture of isomers) [Compound 64] | 1 | 6 | 80 | 58 | 13 | 224 | 15100 | 1290 |  |  |  |  |
| C[C@H](CO)NCc1ccc(F)cc1N1CCCC1c1cc(C(=O)N(C)C)cc2ncc(N3CCOCC3)nc12 (mixture of isomers) [Compound 67] | 18 | 166 | 80 | 617 | 195 | 2460 | > 30200 | 20900 |  |  |  |  |
| CN[C@H]1CCN(C(=O)c2cc(C(C)Nc3ccc(F)c(F)c3)c3nc(N4CCOCC4)cnc3c2)C1 (mixture of isomers) [Compound 365] | 1 | 13 | 80 | 117 | 20 | 2090 | > 30200 | 2880 |  |  |  |  |
| CC(Nc1cc(F)cc(F)c1)c1cc(C(=O)N2CCOCC2)cc2ncc(N3CCOCC3)nc12 (single isomer, unassigned) [Compound 8] | 1 |  | 100 | 109 |  | 396 | 20900 | 3860 | 20 | 25 |  |  |
| CC(Nc1cc(F)cc(F)c1)c1cc(C(=O)N(C)C)cc2ncc(N3CCOCC3)nc12 (single isomer, unassigned) [Compound 12] | 0.4 |  | 218 | 75 |  | 276 | 26300 | 1140 | 9 | 18 |  |  |
| CC(Nc1cc(F)cc(F)c1)c1cc(C(=O)N(C)C)cc2ncc(N3CCOCC3)nc12 (single isomer, unassigned) [Compound 13] | 182 |  | 217 | 5890 |  | 23900 | > 30200 | > 30200 | > 513 | > 513 |  |  |
| CNCCNC(=O)c1cc(C2CCCN2c2cc(F)cc(F)c2)c2nc(N3CCOCC3)cnc2c1 (single isomer, unassigned) [Compound 17] | 0.1 | 1 | 170 | 3 | ~3 | 25 | 12300 | 107 |  |  |  |  |
| CC(Oc1cc(F)cc(F)c1)c1cc(-c2cnc[nH]2)cc2ncc(N3CCOCC3)nc12 (single isomer, unassigned) [Compound 21] | 63 | ~501 | 184 | 2240 | 513 | 4790 | 20000 | 15800 |  |  |  |  |
| CC(Oc1cc(F)cc(F)c1)c1cc(-c2cnc[nH]2)cc2ncc(N3CCOCC3)nc12 (single isomer, unassigned) [Compound 22] | 5620 |  | 183 | 18600 |  | 15100 | 21900 | > 30200 | > 513 | > 513 |  |  |
| Fc1cc(F)cc(N2CCCC2c2cncc3ncc(N4CCOCC4)nc23)c1 (single isomer, unassigned) [Compound 24] | 1 |  | 100 | 245 |  | 302 | 18600 | 372 | 30 | 36 |  |  |
| Fc1cc(F)cc(N2CCCC2c2cncc3ncc(N4CCOCC4)nc23)c1 (single isomer, unassigned) [Compound 25] | 37 |  | 98 | 4680 |  | 12300 | > 30200 | 12900 | > 513 | > 513 |  |  |
| COC(=O)c1cc(C2CCCN2c2cc(F)cc(F)c2)c2nc(N3CCOCC3)cnc2c1 (single isomer, unassigned) [Compound 31] | > 32000 |  | 213 | > 32000 |  | > 32000 | > 32000 | > 32000 | > 513 | > 513 |  |  |
| O=C(c1cc(C2CCCN2c2cc(F)cc(F)c2)c2nc(N3CCOCC3)cnc2c1)N1CCC1 (single isomer, unassigned) [Compound 33] | 1 |  | 280 | 47 |  | 58 | > 30200 | 389 | 4 | 3 |  |  |
| O=C(c1cc(C2CCCN2c2cc(F)cc(F)c2)c2nc(N3CCOCC3)cnc2c1)N1CCC1 (single isomer, unassigned) [Compound 37] | 20 |  | 276 | 2880 |  | 6170 | > 30200 | > 30200 | 126 | 200 |  |  |
| CC(Nc1cccc(F)c1)c1cc(C(=O)N2CCC[C@H]2CO)cc2ncc(N3CCOCC3)nc12 (single isomer, unassigned) [Compound 115] | 2 |  | 327 | 324 |  | 1660 | > 30200 |  | 31 | 66 |  |  |
| CNCCN(C)C(=O)c1cc(C2CCCN2c2cc(F)cc(F)c2)c2nc(N3CCOCC3)cnc2c1 (centres unmarked) [Compound 18] | 0.1 |  | 80 | 1 |  |  |  |  |  |  | 0.3 | 1 |
| CN(C)C(=O)c1cc(C2CCCN2c2cc(F)cc(F)c2)c2nc(N3CCOCC3)cnc2c1 (centres unmarked) [Compound 26] | 2 | ~1.35 | 80 | 117 | 4 | 174 |  | 1320 |  |  |  |  |
| CC(c1cc(CO)cc2ncc(N3CCOCC3)nc12)N(C)c1cccc(F)c1 (centres unmarked) [Compound 111] | 16 | 162 | 80 | 1820 | 389 | 6030 |  | 1480 |  |  |  |  |
| C[C@H](Nc1cccc(F)c1)c1cc(C(=O)NCCO)cc2ncc(N3CCOCC3)nc12 [Compound 118] | 204 | > 513 | 237 | 10200 | > 513 | 14200 |  | 2850 |  |  |  |  |
